According to patent US20240190849A1, “AMINOPYRIMIDINE COMPOUNDS AND METHODS OF THEIR USE” (TYRA BIOSCIENCES, INC., priority 2021, published 2024):

Tests used:
Conditions in all cases: FGFR binding data
FGFR3 (V555M) = target: T1, FGFR3 (V555M) (Homo sapiens, UniProt P22607, V555M); test: Kinase binding assay (kinase-tagged T7 phage, affinity beads, qPCR readout), FGFR3 (V555M)
T1 construct: made in house; host or cells: E. coli derived from BL21, infected with T7 phage
Method in brief: (§1)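 Phage lysate kinase + liganded magnetic beads + compound, 11-pt 3-fold series, 0.9% DMSO; 1 h RT shaking. Wash, elute 30 min with 0.5 μM non-biotinylated ligand; qPCR readout. Hill fit, slope −1 → Kd.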

FGFR1 = target: T2, FGFR1 (Homo sapiens, UniProt P11362); test: Kinase binding assay (kinase-tagged T7 phage, affinity beads, qPCR readout), FGFR1
T2 construct: made in house; host or cells: E. coli derived from BL21, infected with T7 phage
T2 sequence (P11362 22-822): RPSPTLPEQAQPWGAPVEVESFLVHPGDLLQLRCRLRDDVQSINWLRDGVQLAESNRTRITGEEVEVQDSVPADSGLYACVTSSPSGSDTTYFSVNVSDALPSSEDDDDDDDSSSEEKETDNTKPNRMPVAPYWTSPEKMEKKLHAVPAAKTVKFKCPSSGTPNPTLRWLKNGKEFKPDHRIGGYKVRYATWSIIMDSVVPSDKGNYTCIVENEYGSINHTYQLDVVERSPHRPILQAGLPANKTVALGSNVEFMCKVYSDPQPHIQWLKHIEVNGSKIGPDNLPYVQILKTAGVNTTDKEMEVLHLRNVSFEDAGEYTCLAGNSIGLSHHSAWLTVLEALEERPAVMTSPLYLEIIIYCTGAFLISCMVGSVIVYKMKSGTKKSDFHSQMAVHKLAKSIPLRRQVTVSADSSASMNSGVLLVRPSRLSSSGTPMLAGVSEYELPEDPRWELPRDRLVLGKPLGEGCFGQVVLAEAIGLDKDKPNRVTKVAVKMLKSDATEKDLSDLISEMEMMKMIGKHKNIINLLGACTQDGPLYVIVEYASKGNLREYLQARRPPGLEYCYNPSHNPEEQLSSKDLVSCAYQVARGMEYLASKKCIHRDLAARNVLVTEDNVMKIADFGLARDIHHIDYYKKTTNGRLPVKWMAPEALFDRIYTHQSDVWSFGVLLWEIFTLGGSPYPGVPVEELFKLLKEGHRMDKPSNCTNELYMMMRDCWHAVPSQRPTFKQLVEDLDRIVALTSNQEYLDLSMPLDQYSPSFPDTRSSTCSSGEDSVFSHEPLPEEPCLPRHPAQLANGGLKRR
Method in brief: as §1

FGFR2 = target: T3, FGFR2 (Homo sapiens, UniProt P21802); test: Kinase binding assay (kinase-tagged T7 phage, affinity beads, qPCR readout), FGFR2
T3 construct: made in house; host or cells: E. coli derived from BL21, infected with T7 phage
T3 sequence (P21802 22-821): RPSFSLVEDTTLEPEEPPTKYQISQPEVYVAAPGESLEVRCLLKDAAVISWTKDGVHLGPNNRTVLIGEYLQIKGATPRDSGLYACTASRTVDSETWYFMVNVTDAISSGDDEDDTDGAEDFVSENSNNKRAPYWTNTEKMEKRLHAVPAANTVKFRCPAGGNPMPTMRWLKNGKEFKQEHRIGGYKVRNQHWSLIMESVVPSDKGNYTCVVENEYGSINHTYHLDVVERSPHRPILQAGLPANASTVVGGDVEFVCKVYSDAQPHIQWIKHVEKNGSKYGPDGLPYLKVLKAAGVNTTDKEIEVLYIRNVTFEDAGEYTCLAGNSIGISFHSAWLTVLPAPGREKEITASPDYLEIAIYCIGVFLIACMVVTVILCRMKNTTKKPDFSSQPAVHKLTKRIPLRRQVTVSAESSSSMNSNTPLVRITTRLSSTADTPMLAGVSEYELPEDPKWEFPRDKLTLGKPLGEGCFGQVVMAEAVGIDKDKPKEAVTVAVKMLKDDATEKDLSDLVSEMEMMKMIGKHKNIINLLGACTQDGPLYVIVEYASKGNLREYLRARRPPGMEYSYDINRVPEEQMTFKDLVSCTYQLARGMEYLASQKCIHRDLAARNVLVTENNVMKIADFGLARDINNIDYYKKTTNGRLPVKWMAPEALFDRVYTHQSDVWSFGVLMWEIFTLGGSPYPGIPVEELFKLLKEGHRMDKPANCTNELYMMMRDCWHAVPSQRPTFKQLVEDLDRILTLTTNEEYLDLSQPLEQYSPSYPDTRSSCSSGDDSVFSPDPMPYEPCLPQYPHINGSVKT
Method in brief: as §1

FGFR3 = target: T4, FGFR3 (Homo sapiens, UniProt P22607); test: Kinase binding assay (kinase-tagged T7 phage, affinity beads, qPCR readout), FGFR3
T4 construct: made in house; host or cells: E. coli derived from BL21, infected with T7 phage
T4 sequence (P22607 23-806): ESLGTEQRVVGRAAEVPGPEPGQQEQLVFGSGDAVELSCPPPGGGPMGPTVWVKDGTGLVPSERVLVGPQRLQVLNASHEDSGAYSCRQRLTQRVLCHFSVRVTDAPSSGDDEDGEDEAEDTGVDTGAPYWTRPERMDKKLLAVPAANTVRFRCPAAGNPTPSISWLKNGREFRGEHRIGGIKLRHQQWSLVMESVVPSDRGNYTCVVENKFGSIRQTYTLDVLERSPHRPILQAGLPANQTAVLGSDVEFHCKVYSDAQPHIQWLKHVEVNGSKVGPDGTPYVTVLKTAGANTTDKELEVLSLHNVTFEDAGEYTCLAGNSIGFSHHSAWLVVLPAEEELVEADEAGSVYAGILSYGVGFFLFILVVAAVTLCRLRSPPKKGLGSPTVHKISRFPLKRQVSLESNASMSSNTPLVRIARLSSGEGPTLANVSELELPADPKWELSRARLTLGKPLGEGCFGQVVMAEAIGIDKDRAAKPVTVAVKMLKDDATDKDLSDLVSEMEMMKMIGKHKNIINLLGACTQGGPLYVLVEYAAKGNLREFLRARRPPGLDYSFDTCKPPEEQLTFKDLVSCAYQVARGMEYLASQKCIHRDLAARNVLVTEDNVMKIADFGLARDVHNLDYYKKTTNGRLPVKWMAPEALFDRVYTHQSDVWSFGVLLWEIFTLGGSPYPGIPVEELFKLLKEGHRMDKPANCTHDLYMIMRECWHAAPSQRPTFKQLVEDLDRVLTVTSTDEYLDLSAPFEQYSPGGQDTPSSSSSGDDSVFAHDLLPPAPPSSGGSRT
Method in brief: as §1

T1 sequence (P22607 23-806 V555M): as the sequence (P22607 23-806) above, with V533M counted along it

Row | SMILES | Kd (FGFR3 (V555M)) [nM] | Kd (FGFR1) [nM] | Kd (FGFR2) [nM] | Kd (FGFR3) [nM]
1 | C=CC(=O)Nc1ccc2c(c1)c(C)cn2-c1cc(Nc2cnn(C)c2)nnc1C [Example 221, N-[3-methyl-1-[3-methyl-6-[(1-methylpyrazol-4-yl)amino]pyridazin-4-yl]indol-5-yl]prop-2-enamide] | > 1000 | > 1000 | > 1000 | > 1000
2 | C=CC(=O)Nc1ccc2c(c1)c(C)cn2-c1nc(Nc2ccccc2OCC)ncc1C#N [Example 39, N-[1-[5-cyano-2-(2-ethoxyanilino)pyrimidin-4-yl]-3-methyl-indol-5-yl]prop-2-enamide] | > 1000 | > 1000 | > 1000 | > 1000
3 | C=CC(=O)Nc1ccc2c(c1)c(C)cn2-c1nc(Nc2ccc(N3CCOCC3)nc2)ncc1Cl [Example 91, N-[1-[5-chloro-2-[(6-morpholino-3-pyridyl)amino]pyrimidin-4-yl]-3-methyl-indol-5-yl]prop-2-enamide] | 0.1 to 100 | 0.1 to 100 | 0.1 to 100 | 0.1 to 100
4 | C=CC(=O)Nc1ccc2c(-c3ccnc(Nc4ccn(C5CC5)n4)n3)cn(C)c2c1 [Example 112, N-[3-[2-[(1-cyclopropylpyrazol-3-yl)amino]pyrimidin-4-yl]-1-methyl-indol-6-yl]prop-2-enamide] | 0.1 to 100 | 100 to 250 | 100 to 250 | 0.1 to 100
5 | C=CC(=O)Nc1ccc2c(c1)c(C)cn2-c1nc(Nc2cnn(C[C@@H](C)OC)c2)ncc1F [Example 210, N-[1-[5-fluoro-2-[[1-[(2R)-2-methoxypropyl]pyrazol-4-yl]amino]pyrimidin-4-yl]-3-methyl-indol-5-yl]prop-2-enamide] | 0.1 to 100 | 0.1 to 100 | 0.1 to 100 | 0.1 to 100
6 | C=C(Cl)C(=O)Nc1cnc2c(c1)c(C)cn2-c1nc(Nc2ccn(C)n2)ncc1C [Example 116, 2-chloro-N-[3-methyl-1-[5-methyl-2-[(1-methylpyrazol-3-yl)amino]pyrimidin-4-yl]pyrrolo[2,3-b]pyridin-5-yl]prop-2-enamide] | 0.1 to 100 | 100 to 250 | 0.1 to 100 | 0.1 to 100
7 | C=CC(=O)Nc1ccc2c(c1)c(C)cn2-c1nc(Nc2cnn(CCOCC)c2)ncc1F [Example 193] | 0.1 to 100 | 0.1 to 100 | 0.1 to 100 | 0.1 to 100
8 | C=CC(=O)Nc1ccc2c(c1)c(C)cn2-c1nc(Nc2cc(C)nn2C)ncc1Cl [Example 56, N-[1-[5-chloro-2-[(2,5-dimethylpyrazol-3-yl)amino]-pyrimidin-4-yl]-3-methyl-indol-5-yl]prop-2-enamide] | 0.1 to 100 | 100 to 250 | 0.1 to 100 | 0.1 to 100
9 | CC#CC(=O)N(C)c1ccc2c(c1)c(C)cn2-c1nc(Nc2ccnn2C)ncc1C [Example 152, N-methyl-N-[3-methyl-1-[5-methyl-2-[(2-methylpyrazol-3-yl)amino]pyrimidin-4-yl]indol-5-yl]but-2-ynamide] | > 1000 | > 1000 | > 1000 | > 1000
10 | C=CC(=O)Nc1ccc2c(c1)c(C)cn2-c1nc(Nc2ccc(CN3CCOCC3)cc2)ncc1Cl [Example 75, N-[1-[5-chloro-2-[4-(morpholinomethyl)anilino]pyrimidin-4-yl]-3-methyl-indol-5-yl]prop-2-enamide] | 0.1 to 100 | 0.1 to 100 | 0.1 to 100 | 0.1 to 100
11 | C=CC(=O)Nc1ccc2c(c1)c(C)cn2-c1ccnc(Nc2cnn(CCO)c2)n1 [Example 137, N-[1-[2-[[1-(2-hydroxyethyl)pyrazol-4-yl]amino]pyrimidin-4-yl]-3-methyl-indol-5-yl]prop-2-enamide] | 0.1 to 100 | 0.1 to 100 | 0.1 to 100 | 0.1 to 100
12 | C=CC(=O)Nc1cnc2c(c1)c(C)cn2-c1ccnc(Nc2ccnn2C)n1 [Example 83, N-[3-methyl-1-[2-[(2-methylpyrazol-3-yl)amino]pyrimidin-4-yl]pyrrolo[2,3-b]pyridin-5-yl]prop-2-enamide] | 0.1 to 100 | 0.1 to 100 | 0.1 to 100 | 0.1 to 100
13 | C=CC(=O)N(C)c1ccc2c(c1)c(C)cn2-c1nc(Nc2ccnn2C)ncc1C [Example 151, N-methyl-N-[3-methyl-1-[5-methyl-2-[(2-methylpyrazol-3-yl)amino]pyrimidin-4-yl]indol-5-yl]prop-2-enamide] | > 1000 | > 1000 | > 1000 | > 1000
14 | C=CC(=O)Nc1ccc2c(c1)c(C)cn2-c1nc(Nc2cnn(CC(C)OC)c2)ncc1F (stereo not drawn) [Example 204, N-[1-[5-fluoro-2-[[1-(2-methoxypropyl)pyrazol-4-yl]amino]pyrimidin-4-yl]-3-methyl-indol-5-yl]prop-2-enamide] | 0.1 to 100 | 0.1 to 100 | 0.1 to 100 | 0.1 to 100
15 | C=CC(=O)Nc1cnc2c(c1)c(C)cn2-c1nc(Nc2ccn(CC)n2)ncc1C [Example 114, N-[1-[2-[(1-ethylpyrazol-3-yl)amino]-5-methyl-pyrimidin-4-yl]-3-methyl-pyrrolo[2,3-b]pyridin-5-yl]prop-2-enamide] | 0.1 to 100 | 0.1 to 100 | 0.1 to 100 | 0.1 to 100
16 | C=CC(=O)Nc1cc(C)c2c(c1)c(C)cn2-c1nc(Nc2cnn(C)c2)ncc1Cl [Example 84, N-[1-[5-chloro-2-[(1-methylpyrazol-4-yl)amino]pyrimidin-4-yl]-3,7-dimethyl-indol-5-yl]prop-2-enamide] | 0.1 to 100 | 0.1 to 100 | 0.1 to 100 | 0.1 to 100
17 | CC#CC(=O)Nc1cnc2c(c1)c(C)cn2-c1nc(Nc2ccnn2C)ncc1C [Example 131, N-[3-methyl-1-[5-methyl-2-[(2-methylpyrazol-3-yl)amino]pyrimidin-4-yl]pyrrolo[2,3-b]pyridin-5-yl]but-2-ynamide] | > 1000 | > 1000 | > 1000 | > 1000

More lines, now with the values ahead:

Row | Kd (FGFR3 (V555M)) [nM] | Kd (FGFR1) [nM] | Kd (FGFR2) [nM] | Kd (FGFR3) [nM] | SMILES
18 | 0.1 to 100 | 100 to 250 | 0.1 to 100 | 0.1 to 100 | CC#CC(=O)Nc1ccc2c(c1)c(C)cn2-c1nc(Nc2cnn(CCO)c2)ncc1C [Example 140, N-[1-[2-[[1-(2-hydroxyethyl)pyrazol-4-yl]amino]-5-methyl-pyrimidin-4-yl]-3-methyl-indol-5-yl]but-2-ynamide]
19 | 0.1 to 100 | 0.1 to 100 | 0.1 to 100 | 0.1 to 100 | C=CC(=O)Nc1ccc2c(-c3ccnc(Nc4cnn(C(C)C)c4)n3)cn(C)c2c1 [Example 96, N-[3-[2-[(1-isopropylpyrazol-4-yl)amino]pyrimidin-4-yl]-1-methyl-indol-6-yl]prop-2-enamide]
20 | 0.1 to 100 | 0.1 to 100 | 0.1 to 100 | 0.1 to 100 | C=CC(=O)Nc1ccc2c(-c3nc(Nc4ccc(OC)c(OC)c4)ncc3Cl)cn(C)c2c1 [Example 31, N-[3-[5-chloro-2-(3,4-dimethoxyanilino)pyrimidin-4-yl]-1-methyl-indol-6-yl]prop-2-enamide]
21 | 0.1 to 100 | 0.1 to 100 | 0.1 to 100 | 0.1 to 100 | C=CC(=O)Nc1cc(C)c2c(c1)c(C)cn2-c1nc(Nc2ccc(N3CCOCC3)cc2)ncc1Cl [Example 74, N-[1-[5-chloro-2-(4-morpholinoanilino)pyrimidin-4-yl]-3,7-dimethyl-indol-5-yl]prop-2-enamide]
22 | 0.1 to 100 | 0.1 to 100 | 0.1 to 100 | 0.1 to 100 | C=CC(=O)Nc1ccc2c(c1)c(C)cn2-c1nc(Nc2cnn(CCOC(C)C)c2)ncc1F [Example 203, N-[1-[5-fluoro-2-[[1-(2-isopropoxyethyl)pyrazol-4-yl]amino]pyrimidin-4-yl]-3-methyl-indol-5-yl]prop-2-enamide]
23 | 0.1 to 100 | 0.1 to 100 | 0.1 to 100 | 0.1 to 100 | C=CC(=O)Nc1ccc2c(c1)c(C)cn2-c1nc(Nc2ccc(CN3CCN(C)CC3)c(F)c2)ncc1Cl [Example 86, N-[1-[5-chloro-2-[3-fluoro-4-[(4-methylpiperazin-1-yl)methyl]-anilino]pyrimidin-4-yl]-3-methyl-indol-5-yl]prop-2-enamide]
24 | 0.1 to 100 | 0.1 to 100 | 0.1 to 100 | 0.1 to 100 | C#CC(=O)Nc1ccc2c(-c3nc(Nc4cnn(CCO)c4)ncc3F)cn(C)c2c1 [Example 142, N-[3-[5-fluoro-2-[[1-(2-hydroxyethyl)pyrazol-4-yl]amino]pyrimidin-4-yl]-1-methyl-indol-6-yl]prop-2-ynamide]
25 | 0.1 to 100 | 100 to 250 | 100 to 250 | 0.1 to 100 | CCn1ccc(Nc2ncc(C)c(-n3cc(C)c4cc(NC(=O)/C=C/CN(C)C)cnc43)n2)n1 [Example 115, (E)-4-(dimethylamino)-N-[1-[2-[(1-ethylpyrazol-3-yl)amino]-5-methyl-pyrimidin-4-yl]-3-methyl-pyrrolo[2,3-b]pyridin-5-yl]but-2-enamide]
26 | 0.1 to 100 | 0.1 to 100 | 0.1 to 100 | 0.1 to 100 | C=CC(=O)Nc1ccc2c(-c3ccnc(Nc4cnn(CC(F)(F)F)c4)n3)cn(C)c2c1 [Example 168, N-[1-methyl-3-[2-[[1-(2,2,2-trifluoroethyl)pyrazol-4-yl]amino]pyrimidin-4-yl]indol-6-yl]prop-2-enamide]
27 | 0.1 to 100 | 0.1 to 100 | 0.1 to 100 | 0.1 to 100 | C=CC(=O)Nc1ccc2c(-c3ccnc(Nc4cnn(CC5CC5)c4)n3)cn(C)c2c1 [Example 105, N-[3-[2-[[1-(cyclopropylmethyl)pyrazol-4-yl]amino]pyrimidin-4-yl]-1-methyl-indol-6-yl]prop-2-enamide]
